Where a SMILES comes first, the peptide text is derived from it. Bridges are numbered along the chain shown (N, C = ends). [ ]: non-standard residue; d: D form. d2Nal = N[C@H](Cc1ccc2ccccc2c1)C(=O)O; Nle = CCCC[C@H](N)C(=O)O
Target: endotheline receptor
Assay: Activity on the endotheline receptor: displacement of 125I endotheline from rat brain membrane preparation
Format: binding
Details: membrane preparation from rat posterior cortex and brain, 25° C., 60 minutes, 7 concentrations, read-out: IC50 (50% inhibiting concentration; concentration necessary to displace 50% of the specific radioactivity fixed on the receptor)
Procedure: A membrane preparation was made from rat posterior cortex and brain and the tissue was ground with a POLYTRON in a 50 mM Tris buffer pH=7.4. After 30 minutes at 25° C. (W.B.), the homogenate was centrifuged at 30,000 g for 15 minutes (2 centrifugations with intermediate taking up in the Tris buffer pH 7.4). The deposits were suspended in an incubation buffer (Tris 25 mM, pepstatine A 5 microg/ml, aprotinine 3 microg/ml, PMSF 0.1 mM, EDTA 3 mM, EGTA 1 mM pH 7.4). 2 ml aliquots were distributed in hemolysis tubes and ^125 I endotheline (approximately 50,000 dpm/tube) and the product to be studied were added. The product was first tested at 3×10^-5 M in triplicate. When the product tested displaced more than 50% of radioactivity linked specifically to the receptor, it was tested again in a range of 7 concentrations to determine the concentration which inhibited the radioactivity linked specifically to the receptor by 50%. In this way, the 50% inhibiting concentration was determined.
The non-specific bond was determined by the addition of endotheline at 10^-6 M (in triplicate) and the deposits were incubated at 25° C. for 60 minutes, put in a water-bath at 0° C. for 5 minutes, filtered under reduced pressure and rinsed with a Tris buffer 7.4 pH. The radioactivity was counted in the presence of scintillating Triton. The result was expressed directly as a 50% inhibiting concentration (IC50), or the concentration of product studied expressed in nM necessary to displace 50% of the specific radioactivity fixed on the receptor studied.

SMILES | IC50 [nM]
CC[C@H](C)[C@H](NC(=O)[C@H](CC(=O)O)NC(=O)[C@H](CC(C)C)NC(=O)[C@H](Cc1c[nH]cn1)NC(=O)[C@@H]1CSSC[C@H](N)C(=O)N[C@@H](CO)C(=O)N[C@H]2CSSC[C@H](NC(=O)[C@H](CCC(=O)O)NC(=O)[C@H](CCCCN)NC(=O)[C@H](CC(=O)O)NC(=O)CNC(=O)[C@H](CC(C)C)NC(=O)[C@H](CO)NC(=O)[C@H](CO)NC2=O)C(=O)N[C@@H](C(C)C)C(=O)N[C@@H](Cc2ccc(O)cc2)C(=O)N[C@@H](Cc2ccccc2)C(=O)N1)C(=O)N[C@H](C(=O)N[C@@H](Cc1c[nH]c2ccccc12)C(=O)O)[C@@H](C)CC [Example 2, (Gly-7)--ET1 derivative] (H-CSCSSLGDKECVYFCHLDIIW-OH; disulfide 1-15, 3-11) | 1.4
CCCC[C@@H]1NC(=O)[C@H](CC(C)C)NC(=O)[C@H](CO)NC(=O)[C@H](CO)NC(=O)[C@@H]2CSSC[C@H](NC(=O)[C@H](CCC(=O)O)NC(=O)[C@H](CCCCN)NC(=O)[C@H](CC(=O)O)NC1=O)C(=O)N[C@@H](C(C)C)C(=O)N[C@@H](Cc1ccc(O)cc1)C(=O)N[C@@H](Cc1ccccc1)C(=O)N[C@H](C(=O)N[C@@H](Cc1c[nH]cn1)C(=O)N[C@@H](CC(C)C)C(=O)N[C@@H](CC(=O)O)C(=O)N[C@H](C(=O)N[C@H](C(=O)N[C@H](Cc1ccc3ccccc3c1)C(=O)O)[C@@H](C)CC)[C@@H](C)CC)CSSC[C@H](N)C(=O)N[C@@H](CO)C(=O)N2 [Example 3, (Nle-7)-DiNaphtylalanine-21-ET1 derivative] (H-CSCSSL[Nle]DKECVYFCHLDII[d2Nal]-OH; disulfide 1-15, 3-11) | 2
CCCC[C@@H]1NC(=O)[C@H](CC(C)C)NC(=O)[C@H](CO)NC(=O)[C@H](CO)NC(=O)[C@@H](N)CSSC[C@@H](C(=O)N[C@@H](Cc2c[nH]cn2)C(=O)N[C@@H](CC(C)C)C(=O)N[C@@H](CC(=O)O)C(=O)N[C@H](C(=O)N[C@H](C(=O)N[C@@H](Cc2c[nH]c3ccccc23)C(=O)O)[C@@H](C)CC)[C@@H](C)CC)NC(=O)[C@H](CCC(=O)O)NC(=O)[C@H](CCCCN)NC(=O)[C@H](CC(=O)O)NC1=O [Example 7] (H-CSSL[Nle]DKECHLDIIW-OH; disulfide 1-9) | 3520
CCCC[C@H](NC(=O)[C@H](CC(C)C)NC(=O)[C@H](CO)NC(=O)[C@H](CO)NC(=O)[C@@H](N)CS)C(=O)N[C@@H](CC(=O)O)C(=O)N[C@@H](CCCCN)C(=O)N[C@@H](CCC(=O)O)C(=O)N[C@@H](CS)C(=O)N[C@@H](Cc1c[nH]cn1)C(=O)N[C@@H](CC(C)C)C(=O)N[C@@H](CC(=O)O)C(=O)N[C@H](C(=O)N[C@H](C(=O)N[C@@H](Cc1c[nH]c2ccccc12)C(=O)O)[C@@H](C)CC)[C@@H](C)CC [Example 8] (H-CSSL[Nle]DKECHLDIIW-OH) | 5350
CC[C@H](C)[C@H](NC(=O)[C@H](CC(=O)O)NC(=O)[C@H](CC(C)C)NC(=O)[C@H](Cc1c[nH]cn1)NC(=O)[C@@H]1CSSC[C@H](N)C(=O)N[C@@H](CC(C)C)C(=O)N[C@@H](C)C(=O)NCC(=O)N2CCC[C@H]2C(=O)N[C@@H](CC(N)=O)C(=O)NCC(=O)N[C@@H](Cc2ccc(O)cc2)C(=O)N1)C(=O)N[C@H](C(=O)N[C@@H](Cc1c[nH]c2ccccc12)C(=O)O)[C@@H](C)CC [Example 9] (H-CLAGPNGYCHLDIIW-OH; disulfide 1-9) | 7500
CC[C@H](C)[C@H](NC(=O)[C@H](CC(=O)O)NC(=O)[C@H](CC(C)C)NC(=O)[C@H](Cc1c[nH]cn1)NC(=O)[C@H](CS)NC(=O)[C@H](Cc1ccc(O)cc1)NC(=O)CNC(=O)[C@H](CC(N)=O)NC(=O)[C@@H]1CCCN1C(=O)CNC(=O)[C@H](C)NC(=O)[C@H](CC(C)C)NC(=O)[C@@H](N)CS)C(=O)N[C@H](C(=O)N[C@@H](Cc1c[nH]c2ccccc12)C(=O)O)[C@@H](C)CC [Example 10] (H-CLAGPNGYCHLDIIW-OH) | 620
CC[C@H](C)[C@H](NC(=O)[C@H](CC(=O)O)NC(=O)[C@H](CC(C)C)NC(=O)[C@H](Cc1c[nH]cn1)NC(=O)[C@@H]1CSSC[C@H](N)C(=O)N[C@@H]([C@@H](C)O)C(=O)N[C@H]2CSSC[C@H](NC(=O)[C@H](CCC(=O)O)NC(=O)[C@H](CCCCN)NC(=O)[C@H](CC(=O)O)NC(=O)[C@H]([C@@H](C)O)NC(=O)[C@H](CCSC)NC(=O)[C@H](CC(=O)O)NC(=O)[C@H](CCCCN)NC2=O)C(=O)N[C@@H](C(C)C)C(=O)N[C@@H](Cc2ccc(O)cc2)C(=O)N[C@@H](Cc2ccccc2)C(=O)N1)C(=O)N[C@H](C(=O)N[C@@H](Cc1c[nH]c2ccccc12)C(=O)O)[C@@H](C)CC [Example 11] (H-CTCKDMTDKECVYFCHLDIIW-OH; disulfide 1-15, 3-11) | 1.3
CCCC[C@@H]1NC(=O)[C@H](CC(C)C)NC(=O)[C@H](CO)NC(=O)[C@H](CO)NC(=O)[C@@H]2CSSC[C@H](NC(=O)[C@H](CCC(=O)O)NC(=O)[C@H](CCCCN)NC(=O)[C@H](CC(=O)O)NC1=O)C(=O)N[C@@H](C(C)C)C(=O)N[C@@H](Cc1ccc(O)cc1)C(=O)N[C@@H](Cc1ccccc1)C(=O)N[C@H](C(=O)N[C@@H](Cc1c[nH]cn1)C(=O)N[C@@H](CCC(N)=O)C(=O)N[C@@H](CC(=O)O)C(=O)N[C@H](C(=O)N[C@H](C(=O)N[C@@H](Cc1c[nH]c3ccccc13)C(=O)O)[C@@H](C)CC)[C@@H](C)CC)CSSC[C@H](N)C(=O)N[C@@H](CO)C(=O)N2 [Example 12] (H-CSCSSL[Nle]DKECVYFCHQDIIW-OH; disulfide 1-15, 3-11) | 2.3
CC[C@H](C)[C@H](NC(=O)[C@H](CC(=O)O)NC(=O)[C@H](CCC(N)=O)NC(=O)[C@H](Cc1c[nH]cn1)NC(=O)[C@@H]1CSSC[C@H](N)C(=O)N[C@@H](CO)C(=O)N[C@H]2CSSC[C@H](NC(=O)[C@H](CCC(=O)O)NC(=O)[C@H](CCCCN)NC(=O)[C@H](CC(=O)O)NC(=O)[C@H](CCSC)NC(=O)[C@H](CC(C)C)NC(=O)[C@H](CO)NC(=O)[C@H](CO)NC2=O)C(=O)N[C@@H](CC(C)C)C(=O)N[C@@H](Cc2ccc(O)cc2)C(=O)N[C@@H](Cc2ccccc2)C(=O)N1)C(=O)N[C@H](C(=O)N[C@@H](Cc1c[nH]c2ccccc12)C(=O)O)[C@@H](C)CC [Example 13] (H-CSCSSLMDKECLYFCHQDIIW-OH; disulfide 1-15, 3-11) | 3.5
CC[C@H](C)[C@H](NC(=O)[C@H](CC(=O)O)NC(=O)[C@H](CCCNC(=N)N)NC(=O)[C@H](Cc1c[nH]cn1)NC(=O)[C@@H]1CSSC[C@H](N)C(=O)N[C@@H]([C@@H](C)O)C(=O)N[C@H]2CSSC[C@H](NC(=O)[C@H](CCC(=O)O)NC(=O)[C@H](CCCCN)NC(=O)[C@H](CC(=O)O)NC(=O)[C@H]([C@@H](C)O)NC(=O)[C@H](CCSC)NC(=O)[C@H](CC(=O)O)NC(=O)[C@H](CCCCN)NC2=O)C(=O)N[C@@H](CC(C)C)C(=O)N[C@@H](Cc2ccc(O)cc2)C(=O)N[C@@H](Cc2ccccc2)C(=O)N1)C(=O)N[C@H](C(=O)N[C@@H](Cc1c[nH]c2ccccc12)C(=O)O)[C@@H](C)CC [Example 15] (H-CTCKDMTDKECLYFCHRDIIW-OH; disulfide 1-15, 3-11 (inferred); N-terminus assumed) | 1.8
